Experimental findings from ChEMBL document CHEMBL5214930, “Discovery of the First Selective IDO2 Inhibitor As Novel Immunotherapeutic Avenues for Rheumatoid Arthritis” (J Med Chem, 2022) are described below.

Data set [1] deals with Tryptophan 2,3-dioxygenase (Homo sapiens, UniProt P48775). The data set can be described thus: Inhibition of TDO (unknown origin).
In data set [2] the target is T1, Indoleamine 2,3-dioxygenase 1 (Homo sapiens, UniProt P14902). The data set can be described thus: Inhibition of IDO1 (unknown origin).
Target sequence in this assay (P14902 whole entry): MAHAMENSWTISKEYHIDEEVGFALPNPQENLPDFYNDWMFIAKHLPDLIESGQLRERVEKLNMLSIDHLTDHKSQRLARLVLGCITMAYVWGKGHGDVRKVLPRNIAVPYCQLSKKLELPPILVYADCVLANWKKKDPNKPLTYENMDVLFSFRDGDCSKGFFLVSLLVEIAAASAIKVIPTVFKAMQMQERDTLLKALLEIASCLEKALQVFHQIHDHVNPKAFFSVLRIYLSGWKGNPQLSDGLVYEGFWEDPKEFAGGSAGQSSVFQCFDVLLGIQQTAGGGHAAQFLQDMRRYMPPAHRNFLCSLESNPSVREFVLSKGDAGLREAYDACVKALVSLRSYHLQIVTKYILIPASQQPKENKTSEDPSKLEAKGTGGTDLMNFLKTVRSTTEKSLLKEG
Data set [3] deals with T2, Indoleamine 2,3-dioxygenase 2 (Homo sapiens, UniProt Q6ZQW0).
T2 sequence (Q6ZQW0 whole entry): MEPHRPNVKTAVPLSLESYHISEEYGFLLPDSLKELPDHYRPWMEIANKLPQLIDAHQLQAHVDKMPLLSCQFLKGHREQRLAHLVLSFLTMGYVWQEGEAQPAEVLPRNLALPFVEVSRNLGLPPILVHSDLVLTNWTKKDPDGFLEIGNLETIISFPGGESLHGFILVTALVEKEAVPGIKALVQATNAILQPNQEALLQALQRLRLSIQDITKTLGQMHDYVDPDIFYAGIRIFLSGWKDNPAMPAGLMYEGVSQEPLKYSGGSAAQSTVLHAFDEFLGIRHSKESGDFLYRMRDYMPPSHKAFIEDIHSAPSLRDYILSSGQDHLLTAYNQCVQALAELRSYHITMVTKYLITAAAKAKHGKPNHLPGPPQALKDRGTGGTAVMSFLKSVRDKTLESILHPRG
Nature of the data set: Inhibition of IDO2 (unknown origin).

In data set [4] the test system is Mus musculus. The data set can be described thus: Antiarthritic activity against collagen-induced arthritis DBA/1J mouse model assessed as decrease in bone erosion at 100 mg/kg, ip administered from day 57 to 74 post CFA injection and measured every 3 days by H and E staining method. Format: functional, organism-based. The conditions noted are these: time 17.0 day.

Data set [5] in a line: Apparent volume of distribution in Sprague-Dawley rat at 1 mg/kg, iv. The data set is classed as ADME, organism-based. The following applies: in vivo, read-out: Vz.
In data set [6] the test system is Rattus norvegicus. The data set can be described thus: Antiarthritic activity against adjuvant arthritis-induced Sprague-Dawley rat model assessed as decrease in paw swelling at 30 to 120 mg/kg, po administered from day 21 to 36 post CFA injection and measured every 3 days. The conditions noted are these: dose 30-120 mg/kg, time 15.0 day. The data set is classed as functional, organism-based.

For data set [7], the target named is T2, Indoleamine 2,3-dioxygenase 2. The data set can be described thus: Inhibition of human IDO2.
Data set [8] can be described thus: AUC(0 to infinity) in Sprague-Dawley rat at 1 mg/kg, iv. The conditions noted are these: in vivo. More on the design: time infinity, dose 1 mg/kg, route iv. Format: ADME, organism-based.
A short description of data set [9]: Tmax in Sprague-Dawley rat at 10 mg/kg, po. Format: ADME, organism-based. The conditions noted are these: in vivo.
For data set [10], the system named is Rattus norvegicus. The data set can be described thus: Antiarthritic activity against adjuvant arthritis-induced po dosed Sprague-Dawley rat model assessed as decrease in bone erosion of cartilage administered from day 21 to 36 post CFA injection and measured every 3 days by H and E staining method. Format: functional, organism-based. The following applies: dose 50-100 mg/kg, time 15.0 day, DDE = dose-dependent effect.

For data set [11], the system named is Rattus norvegicus. Nature of the data set: Antiarthritic activity against adjuvant arthritis-induced Sprague-Dawley rat model assessed as decrease in IL-6 level at 30 to 120 mg/kg, po administered from day 21 to 36 post CFA injection and measured every 3 days. The conditions noted are these: dose 30-120 mg/kg, time 15.0 day. The data set is classed as functional, organism-based.

For data set [12], the system named is Mus musculus. Nature of the data set: Antiinflammatory activity against xylene-induced ear swelling ICR mouse model assessed as swelling rate at 100 mg/kg, IG measured after 1 hr (Activity = 58.21 +/- 12.79%). The data set is classed as functional.
Data set [13] has as its system Mus musculus. The data set can be described thus: Antiarthritic activity against collagen-induced arthritis DBA/1J mouse model assessed as increase in cartilage at 100 mg/kg, ip administered from day 57 to 74 post CFA injection and measured every 3 days by H and E staining method. Format: functional, organism-based. The conditions noted are these: time 17.0 day.
Data set [14] is described as follows: Half life in Sprague-Dawley rat at 1 mg/kg, iv. The following applies: in vivo. Format: ADME, organism-based.
The target in data set [15] is T1, Indoleamine 2,3-dioxygenase 1. The data set can be described thus: Inhibition of recombinant human IDO1 in HeLa cells at 100 nM relative to control. The data set is classed as cell-based.
Target sequence in this assay (P14902 whole entry, looked up): as the sequence (P14902 whole entry) above
The target in data set [16] is T3, Indoleamine 2,3-dioxygenase 2 (Homo sapiens) (UniProt Q6ZQW0).
T3 sequence (whole entry): T2 sequence (Q6ZQW0 whole entry)
The data set can be described thus: Inhibition of recombinant human IDO2 in HeLa cells at 100 nM relative to control. The data set is classed as cell-based.

Another data set deals with HeLa. The data set can be described thus: Antiproliferative activity against human HeLa cells. The data set is classed as functional, cell-based.
The nature of data set [17]: MRT (0 to infinity) in Sprague-Dawley rat at 1 mg/kg, iv. Format: ADME, organism-based. The conditions noted are these: in vivo.
Data set [18] can be described thus: Clearance in Sprague-Dawley rat at 1 mg/kg, iv. The data set is classed as ADME, organism-based. The following applies: in vivo.
Data set [19] can be described thus: AUC(0 to infinity) in Sprague-Dawley rat at 10 mg/kg, po. Format: ADME, organism-based. More on the design: time infinity, dose 10 mg/kg, route po. The following applies: in vivo.
Data set [20] concerns Rattus norvegicus. Nature of the data set: Antiarthritic activity against adjuvant arthritis-induced po dosed Sprague-Dawley rat model assessed as decrease in inflammatory cell infiltration administered from day 21 to 36 post CFA injection and measured every 3 days by H and E staining method. The following applies: dose 50-100 mg/kg, time 15.0 day, DDE = dose-dependent effect. Format: functional, organism-based.

Data set [21] can be described thus: Metabolic stability in human liver microsome assessed as intrinsic clearance. The data set is classed as ADME. The conditions noted are these: microsomes. (In general: Microsomes from liver hold many membrane-bound enzymes, among them those of drug oxidation.)
The subject of data set [22] is Rattus norvegicus. Nature of the data set: Antiarthritic activity against adjuvant arthritis-induced Sprague-Dawley rat model assessed as decrease in index score at 30 to 120 mg/kg, po administered from day 21 to 36 post CFA injection and measured every 3 days. The following applies: dose 30-120 mg/kg, time 15.0 day. Format: functional, organism-based.
In data set [23] the test system is Mus musculus. The data set can be described thus: Antiarthritic activity against collagen-induced arthritis DBA/1J mouse model assessed as decrease in inflammation at 100 mg/kg, ip administered from day 57 to 74 post CFA injection and measured every 3 days by H and E staining method. Format: functional, organism-based. The following applies: time 17.0 day.
Data set [24] has as its system Mus musculus. Nature of the data set: Antiinflammatory activity against xylene-induced ear swelling ICR mouse model assessed as swelling inhibition ratio at 100 mg/kg, IG measured after 1 hr. The data set is classed as functional. Further details: scale not given: the % may be the effect or the level left.
The test system of data set [25] is Mus musculus. Nature of the data set: Antiarthritic activity against collagen-induced arthritis DBA/1J mouse model assessed as decrease in IL-33 level at 50 to 100 mg/kg, ip administered from day 57 to 74 post CFA injection and measured every 3 days by immunohistochemical staining method. The data set is classed as functional, organism-based. The conditions noted are these: dose 50-100 mg/kg, time 17.0 day.

The subject of data set [26] is Mus musculus. The data set can be described thus: Antiarthritic activity against collagen-induced arthritis DBA/1J mouse model assessed as paw swelling at 100 mg/kg, ip administered from day 57 to 74 post CFA injection and measured every 3 days. Format: functional, organism-based. The following applies: time 17.0 day.
In data set [27] the test system is Rattus norvegicus. The data set can be described thus: Antiarthritic activity against adjuvant arthritis-induced Sprague-Dawley rat model assessed as decrease in TNF-alpha level at 30 to 120 mg/kg, po administered from day 21 to 36 post CFA injection and measured every 3 days. The data set is classed as functional, organism-based. The following applies: dose 30-120 mg/kg, time 15.0 day.

Data set [28] in a line: Half life in Sprague-Dawley rat at 10 mg/kg, po. Format: ADME, organism-based. The following applies: in vivo.
The target of data set [29] is T1, Indoleamine 2,3-dioxygenase 1. The data set can be described thus: Inhibition of human IDO1.
Target sequence in this assay (P14902 whole entry): as the sequence (P14902 whole entry) above
The target in data set [30] is T3, Indoleamine 2,3-dioxygenase 2 (Homo sapiens). The data set can be described thus: Inhibition of recombinant human IDO2 in HeLa cells at […] relative to control. The data set is classed as cell-based.
The nature of data set [31]: MRT (0 to infinity) in Sprague-Dawley rat at 10 mg/kg, po. Format: ADME, organism-based. The conditions noted are these: in vivo.
Data set [32] deals with Mus musculus. The data set can be described thus: Antiarthritic activity against collagen-induced arthritis DBA/1J mouse model assessed as decrease in IL-18 level at 50 to 100 mg/kg, ip administered from day 57 to 74 post CFA injection and measured every 3 days by immunohistochemical staining method. Format: functional, organism-based. The conditions noted are these: dose 50-100 mg/kg, time 17.0 day.

A short description of data set [33]: Metabolic stability in human liver microsome assessed as intrinsic permeability measured per mg of protein. Format: ADME. The following applies: microsomes.
Data set [34] can be described thus: Metabolic stability in human liver microsome assessed as binding constant. The data set is classed as ADME. The conditions noted are these: microsomes.
Data set [35] is described as follows: Oral bioavailability in Sprague-Dawley rat at 10 mg/kg. Format: ADME, organism-based. The following applies: in vivo.
Data set [36] in a line: Cmax in Sprague-Dawley rat at 10 mg/kg, po. The data set is classed as ADME, organism-based. Further details: dose 10 mg/kg, route po. The conditions noted are these: in vivo.
For data set [37], the system named is Rattus norvegicus. Nature of the data set: Antiarthritic activity against adjuvant arthritis-induced po dosed Sprague-Dawley rat model assessed as decrease in pannus formation administered from day 21 to 36 post CFA injection and measured every 3 days by H and E staining method. Format: functional, organism-based. The conditions noted are these: dose 50-100 mg/kg, time 15.0 day, DDE = dose-dependent effect.

Data set [38] deals with Mus musculus. The data set can be described thus: Antiarthritic activity against collagen-induced arthritis ip dosed DBA/1J mouse model assessed as paw swelling administered from day 57 to 74 post CFA injection and measured every 3 days. Format: functional, organism-based. The following applies: dose 25-100 mg/kg, time 17.0 day, DDE = dose-dependent effect.
Data set [39] is described as follows: Metabolic stability in human liver microsome assessed as half life. The data set is classed as ADME. The conditions noted are these: liver microsomes.

One may read the IC50 as the concentration at which inhibition is half-maximal. In general, AUC(0-inf) refers to total exposure, with the tail of the curve extrapolated. As a reminder, the Tmax is the time at which the peak concentration occurs. What is called half-life is how long it takes for the measured level to halve. The term inhibition denotes how much of the control response was suppressed. For orientation: EC50 means the concentration that produces a half-maximal response. By MRT inf is commonly meant the average time that molecules of a dose stay in the body. Broadly, the clearance is the volume of plasma or blood freed of the substance per unit of time. The term bioavailability denotes the share of a dose that reaches the circulation, judged against a reference dose that is usually intravenous. The Cmax is the maximum level reached in the sampled fluid or tissue.

Active and inactive are the calls of the source. No cut-off for these calls is given here.

Tryptophan 2,3-dioxygenase, sequence (P48775 whole entry): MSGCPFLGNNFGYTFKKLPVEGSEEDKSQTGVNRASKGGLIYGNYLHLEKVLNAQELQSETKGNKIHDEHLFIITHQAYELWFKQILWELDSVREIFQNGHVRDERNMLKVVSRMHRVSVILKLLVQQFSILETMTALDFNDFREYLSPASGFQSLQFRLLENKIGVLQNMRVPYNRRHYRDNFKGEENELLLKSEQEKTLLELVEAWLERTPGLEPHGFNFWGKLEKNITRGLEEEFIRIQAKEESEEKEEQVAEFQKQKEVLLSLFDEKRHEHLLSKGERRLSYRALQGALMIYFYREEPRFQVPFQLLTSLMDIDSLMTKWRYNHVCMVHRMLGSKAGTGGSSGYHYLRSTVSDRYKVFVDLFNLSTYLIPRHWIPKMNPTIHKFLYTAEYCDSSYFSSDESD

For the compound `CN1CCN(c2ccc3nc4n(c(=O)c3c2)-c2ccc(F)cc2C4=O)CC1`, the IC50 is 760 nM in [1], 500 nM in data set [2] and 18400 nM in data set [3].
For the compound `O=C(NCc1cn(CCNc2nonc2/C(=N/O)NCc2cccc(Br)c2)nn1)c1ccccn1`, the outcome in the data set with Mus musculus [4], in the data set on Rattus norvegicus [6], in the data set with Rattus norvegicus [11], in the data set on Mus musculus [13], with Rattus norvegicus [22] and in the data set on Mus musculus [23] was Active. Besides, the result in the data set on Mus musculus [25], in the data set with Mus musculus [26], with Rattus norvegicus [27] and with Mus musculus [32] was Active. Also, in [5], the Vd was found to be 2.68 L/kg. Further, the IC50 in data set [7] is 112 nM; in data set [29], 411 nM. The values for the AUC(0-inf) in data set [8] and in data set [19] were 375 ng·h/mL and 670 ng·h/mL, respectively. Also, in data set [9], the Tmax was 45 min. In addition, the Activity result in the data set on Rattus norvegicus [10] is “Dde”; with Mus musculus [12], 20.19%; in the data set with Rattus norvegicus [20], “Dde”; in the data set on Mus musculus [24], 65.32%; in the data set on Rattus norvegicus [37], “Dde”; in the data set with Mus musculus [38] it was “Dde”. For the same compound, the half-life was 41.4 min in data set [14], 121 min in data set [28] and 49.5 min in data set [39]. The inhibition in data set [15] was 26%; in [16], 41%; in data set [30] it was 97%. The same compound displayed an EC50 in the data set on HeLa of 633 nM. For the same compound, the figures for the MRT inf in [17] and in data set [31] were 33 min and 449 min, respectively. Also, the clearance in data set [18] was 44.5 mL/min/kg. Besides, the CLH in data set [21] came to 0.056 mL/min. Further, the Pm in [33] came out at 0.25 mL⁻¹. In addition, in data set [34], the K stood at 0.014 min⁻¹. In addition, the bioavailability in data set [35] was 17.9%. In data set [36], this compound had a Cmax of 154 ng/mL.
